Reference: patent US6559101B2, “N- (5, 7-dimethoxy [1, 2, 4] triazolo [1, 5-a] pyrimidin-2-yl) arylsulfonamide compounds and their use as herbicides” (Dow AgroSciences LLC, priority 2000, dated 2003)

Experiments:
Assay type in all cases: in vivo
[1] = test system: morningglory (Ipomoea hederacea); test: Postemergence herbicidal activity; conditions: scored after 2 weeks, 0 no injury, 100 complete kill
Description: (§1) Seeds of the desired test plant species were planted in Grace-Sierra MetroMix® 306 planting mixture, which typically has a pH of 6.0 to 6.8 and an organic matter content of about 30 percent, in plastic pots with a surface area of 64 square centimeters. When required to ensure good germination and healthy plants, a fungicide treatment and/or other chemical or physical treatment was applied. The plants were grown for 7-21 days in a greenhouse with an approximately 15 hr photoperiod which was maintained at about 23-29° C. during the day and 22-28° C. during the night. Nutrients and water were added on a regular basis and supplemental lighting was provided with overhead metal halide 1000 Watt lamps as necessary. The plants were employed for testing when they reached the first or second true leaf stage. A weighed amount of each test compound, determined by the highest rate to be tested, was placed in a 20 mL glass vial and was dissolved in 4 mL of a 97:3 v/v (volume/volume) mixture of acetone and dimethyl sulfoxide to obtain concentrated stock solutions. […] The concentrated stock solutions obtained were diluted with an aqueous mixture containing acetone, water, iso-propyl alcohol, dimethyl sulfoxide, Atplus 411F crop oil concentrate, and Triton X-155 surfactant (methylenebisdiamyl phenoxy polyethoxy ethanol) in a 48.5:39:10:1.5:1.0:0.02 v/v ratio to obtain spray solutions of known concentration. The solutions containing the highest concentration to be tested were prepared by diluting 2 mL aliquots of the stock solution with 13 mL of the mixture and lower concentrations were prepared by dilution of appropriate smaller portions of the stock solution. Approximately 1.5 mL aliquots of each solution of known concentration were sprayed evenly onto each of the test plant pots using a Devilbiss atomizer driven by compressed air pressure of 2 to 4 psi (140 to 280 kiloPascals) to obtain thorough coverage of each plant. Control plants were sprayed in the same manner with the aqueous mixture. In this test an application rate of 1 ppm results in the application of approximately 1 g/ha. The treated plants and control plants were placed in a greenhouse as described above and watered by sub-irrigation to prevent wash-off of the test compounds. After 2 weeks the condition of the test plants as compared with that of the untreated plants was determined visually and scored on a scale of 0 to 100 percent where 0 corresponds to no injury and 100 corresponds to complete kill.

[2] = test system: chickweed (Stellaria media); test: Postemergence herbicidal activity; conditions: scored after 2 weeks, 0 no injury, 100 complete kill
Description: as §1

[3] = test system: cocklebur (Xanthium strumarium); test: Postemergence herbicidal activity; conditions: scored after 2 weeks, 0 no injury, 100 complete kill
Description: as §1

[4] = test system: giant foxtail (Setaria faberi); test: Postemergence herbicidal activity; conditions: scored after 2 weeks, 0 no injury, 100 complete kill
Description: as §1

[5] = test system: lambsquarters (Chenopodium album); test: Postemergence herbicidal activity; conditions: scored after 2 weeks, 0 no injury, 100 complete kill
Description: as §1

[6] = test system: wild buckwheat (Polygonum convolvulus); test: Postemergence herbicidal activity; conditions: scored after 2 weeks, 0 no injury, 100 complete kill
Description: as §1

[7] = test system: velvetleaf (Abutilion theophrasti); test: Postemergence herbicidal activity; conditions: scored after 2 weeks, 0 no injury, 100 complete kill
Description: as §1

viola (Viola tricolor) = test: Postemergence herbicidal activity; conditions: scored after 2 weeks, 0 no injury, 100 complete kill
Description: as §1

[8] = test system: Rox orange sorghum (Sorghum bicolor); test: Postemergence herbicidal activity; conditions: scored after 2 weeks, 0 no injury, 100 complete kill
Description: as §1

wild oats (Avena fatua) [9] = test: Postemergence herbicidal activity; conditions: scored after 2 weeks, 0 no injury, 100 complete kill
Description: as §1

[10] = test system: pigweed (Amaranthus retroflexus); test: Postemergence herbicidal activity; conditions: scored after 2 weeks, 0 no injury, 100 complete kill
Description: as §1

[11] = test system: blackgrass (Alopecurus myosuroides); test: Postemergence herbicidal activity; conditions: scored after 2 weeks, 0 no injury, 100 complete kill
Description: as §1

[12] = test system: morningglory (Ipomoea hederacea); test: Preemergence herbicidal activity; conditions: scored after 3 weeks, 0 no injury, 100 complete kill or no germination
Description: (§2) The soil matrix was contained in plastic pots with a surface area of 161 square centimeters. When required to ensure good germination and healthy plants, a fungicide treatment and/or other chemical or physical treatment was applied. A weighed amount, determined by the highest rate to be tested, of each test compound was placed in a 20 mL glass vial and was dissolved in 8 mL of a 97:3 v/v (volume/volume) mixture of acetone and dimethyl sulfoxide to obtain concentrated stock solutions. […] The stock solutions obtained were diluted with a 99.9:0.1 mixture of water and Tween® 155 surfactant (ethoxylated sorbitan fatty acid ester) to obtain application solutions of known concentration. The solutions containing the highest concentration to be tested were prepared by diluting 4 mL aliquots of the stock solution with 8.5 mL of the mixture and lower concentrations were prepared by dilution of appropriate smaller portions of the stock solution. A 2.5 mL aliquot of each solution of known concentration was sprayed evenly onto the soil of each seeded pot using a Cornwall 5.0 mL glass syringe fitted with a TeeJet TN-3 hollow cone nozzle to obtain thorough coverage of the soil in each pot. Control pots were sprayed in the same manner with the aqueous mixture. A highest application rate of 4.48 kg/ha is achieved when 50 mg of test compound is employed. The treated pots and control pots were placed in a greenhouse with an approximately 15 hr photoperiod which was maintained at about 23-29° C. during the day and 22-28° C. during the night. Nutrients and water were added on a regular basis and supplemental lighting was provided with overhead metal halide 1000 Watt lamps as necessary. The water was added by top-irrigation. After 3 weeks the condition of the test plants that germinated and grew as compared with that of the untreated plants that germinated and grew was determined visually and scored on a scale of 0 to 100 percent where 0 corresponds to no injury and 100 corresponds to complete kill or no germination.

[13] = test system: crabgrass (Digitaria sanguinalis); test: Preemergence herbicidal activity; conditions: scored after 3 weeks, 0 no injury, 100 complete kill or no germination
Description: as §2

[14] = test system: cocklebur (Xanthium strumarium); test: Preemergence herbicidal activity; conditions: scored after 3 weeks, 0 no injury, 100 complete kill or no germination
Description: as §2

[15] = test system: giant foxtail (Setaria faberi); test: Preemergence herbicidal activity; conditions: scored after 3 weeks, 0 no injury, 100 complete kill or no germination
Description: as §2

[16] = test system: wild poinsettia (Euphorbia heterophylla); test: Preemergence herbicidal activity; conditions: scored after 3 weeks, 0 no injury, 100 complete kill or no germination
Description: as §2

[17] = test system: velvetleaf (Abutilion theophrasti); test: Preemergence herbicidal activity; conditions: scored after 3 weeks, 0 no injury, 100 complete kill or no germination
Description: as §2

[18] = test system: barnyardgrass (Echinochloa crus-galli); test: Preemergence herbicidal activity; conditions: scored after 3 weeks, 0 no injury, 100 complete kill or no germination
Description: as §2

[19] = test system: Rox orange sorghum (Sorghum bicolor); test: Preemergence herbicidal activity; conditions: scored after 3 weeks, 0 no injury, 100 complete kill or no germination
Description: as §2

wild oats (Avena fatua) [20] = test: Preemergence herbicidal activity; conditions: scored after 3 weeks, 0 no injury, 100 complete kill or no germination
Description: as §2

[21] = test system: pigweed (Amaranthus retroflexus); test: Preemergence herbicidal activity; conditions: scored after 3 weeks, 0 no injury, 100 complete kill or no germination
Description: as §2

[22] = test system: blackgrass (Alopecurus myosuroides); test: Preemergence herbicidal activity; conditions: scored after 3 weeks, 0 no injury, 100 complete kill or no germination
Description: as §2

[23] = test system: lambsquarters (Chenopodium album); test: Preemergence herbicidal activity; conditions: scored after 3 weeks, 0 no injury, 100 complete kill or no germination
Description: as §2

## COc1cc(OC)n2nc(NS(=O)(=O)c3cc(C)ccc3OC)nc2n1 [Compound 6]
[1]; 31.3 ppm
  Postemergence herbicidal activity IPOHE: 70%
[2]; 31.3 ppm
  Postemergence herbicidal activity STEME: 98%
[3]; 31.3 ppm
  Postemergence herbicidal activity XANST: 95%
[4]; 31.3 ppm
  Postemergence herbicidal activity SETFA: 95%
[5]; 31.3 ppm
  Postemergence herbicidal activity CHEAL: 95%
[6]; 31.3 ppm
  Postemergence herbicidal activity POLCO: 98%
[7]; 31.3 ppm
  Postemergence herbicidal activity ABUTH: 95%
Viola (Viola tricolor); 31.3 ppm
  Postemergence herbicidal activity VIOTR: 90%
[8]; 31.3 ppm
  Postemergence herbicidal activity SORBI: 95%
Wild oats (Avena fatua) [9]; 31.3 ppm
  Postemergence herbicidal activity AVEFA: 95%
[10]; 31.3 ppm
  Postemergence herbicidal activity AMARE: 100%
[11]; 31.3 ppm
  Postemergence herbicidal activity ALOMY: 90%
[12]; 35 g/Ha
  Preemergence herbicidal activity IPOHE: 50%
[13]; 35 g/Ha
  Preemergence herbicidal activity DIGSA: 100%
[14]; 35 g/Ha
  Preemergence herbicidal activity XANST: 70%
[15]; 35 g/Ha
  Preemergence herbicidal activity SETFA: 98%
[16]; 35 g/Ha
  Preemergence herbicidal activity EPHHL: 80%
[17]; 35 g/Ha
  Preemergence herbicidal activity ABUTH: 98%
[18]; 35 g/Ha
  Preemergence herbicidal activity ECHCG: 90%
[19]; 35 g/Ha
  Preemergence herbicidal activity SORBI: 95%
Wild oats (Avena fatua) [20]; 35 g/Ha
  Preemergence herbicidal activity AVEFA: 90%
[21]; 35 g/Ha
  Preemergence herbicidal activity AMARE: 98%
[22]; 35 g/Ha
  Preemergence herbicidal activity ALOMY: 100%

## COc1cc(OC)n2nc(NS(=O)(=O)c3c(OC)cccc3C(F)(F)F)nc2n1 [Compound 4]
[1]; 3.9 ppm
  Postemergence herbicidal activity IPOHE: 90%
[2]; 3.9 ppm
  Postemergence herbicidal activity STEME: 99%
[3]; 3.9 ppm
  Postemergence herbicidal activity XANST: 70%
[4]; 3.9 ppm
  Postemergence herbicidal activity SETFA: 100%
[5]; 3.9 ppm
  Postemergence herbicidal activity CHEAL: 95%
[6]; 3.9 ppm
  Postemergence herbicidal activity POLCO: 95%
[7]; 3.9 ppm
  Postemergence herbicidal activity ABUTH: 95%
Viola (Viola tricolor); 3.9 ppm
  Postemergence herbicidal activity VIOTR: 90%
[8]; 3.9 ppm
  Postemergence herbicidal activity SORBI: 95%
Wild oats (Avena fatua) [9]; 3.9 ppm
  Postemergence herbicidal activity AVEFA: 98%
[10]; 3.9 ppm
  Postemergence herbicidal activity AMARE: 100%
[11]; 3.9 ppm
  Postemergence herbicidal activity ALOMY: 95%
[12]; 17.5 g/Ha
  Preemergence herbicidal activity IPOHE: 98%
[13]; 17.5 g/Ha
  Preemergence herbicidal activity DIGSA: 100%
[14]; 17.5 g/Ha
  Preemergence herbicidal activity XANST: 85%
[15]; 17.5 g/Ha
  Preemergence herbicidal activity SETFA: 99%
[16]; 17.5 g/Ha
  Preemergence herbicidal activity EPHHL: 98%
[17]; 17.5 g/Ha
  Preemergence herbicidal activity ABUTH: 98%
[18]; 17.5 g/Ha
  Preemergence herbicidal activity ECHCG: 100%
[19]; 17.5 g/Ha
  Preemergence herbicidal activity SORBI: 100%
Wild oats (Avena fatua) [20]; 17.5 g/Ha
  Preemergence herbicidal activity AVEFA: 100%
[21]; 17.5 g/Ha
  Preemergence herbicidal activity AMARE: 99%
[22]; 17.5 g/Ha
  Preemergence herbicidal activity ALOMY: 100%

## CCOc1ccc(C)cc1S(=O)(=O)Nc1nc2nc(OC)cc(OC)n2n1 [Compound 10]
[1]; 7.8 ppm
  Postemergence herbicidal activity IPOHE: 20%
[2]; 7.8 ppm
  Postemergence herbicidal activity STEME: 85%
[3]; 7.8 ppm
  Postemergence herbicidal activity XANST: 50%
[4]; 7.8 ppm
  Postemergence herbicidal activity SETFA: 80%
[5]; 7.8 ppm
  Postemergence herbicidal activity CHEAL: 95%
[6]; 7.8 ppm
  Postemergence herbicidal activity POLCO: 85%
[7]; 7.8 ppm
  Postemergence herbicidal activity ABUTH: 50%
Viola (Viola tricolor); 7.8 ppm
  Postemergence herbicidal activity VIOTR: 85%
[8]; 7.8 ppm
  Postemergence herbicidal activity SORBI: 85%
Wild oats (Avena fatua) [9]; 7.8 ppm
  Postemergence herbicidal activity AVEFA: 90%
[10]; 7.8 ppm
  Postemergence herbicidal activity AMARE: 95%
[11]; 7.8 ppm
  Postemergence herbicidal activity ALOMY: 80%
[12]; 35 g/Ha
  Preemergence herbicidal activity IPOHE: 0%
[13]; 35 g/Ha
  Preemergence herbicidal activity DIGSA: 0%
[15]; 35 g/Ha
  Preemergence herbicidal activity SETFA: 40%
[23]; 35 g/Ha
  Preemergence herbicidal activity CHEAL: 90%
[16]; 35 g/Ha
  Preemergence herbicidal activity EPHHL: 40%
[17]; 35 g/Ha
  Preemergence herbicidal activity ABUTH: 60%
[18]; 35 g/Ha
  Preemergence herbicidal activity ECHCG: 80%
[19]; 35 g/Ha
  Preemergence herbicidal activity SORBI: 100%
Wild oats (Avena fatua) [20]; 35 g/Ha
  Preemergence herbicidal activity AVEFA: 80%
[21]; 35 g/Ha
  Preemergence herbicidal activity AMARE: 98%
[22]; 35 g/Ha
  Preemergence herbicidal activity ALOMY: 30%

## COc1cc(OC)n2nc(NS(=O)(=O)c3c(OCC(F)F)cccc3C(F)(F)F)nc2n1 [Compound 8]
[1]; 31.3 ppm
  Postemergence herbicidal activity IPOHE: 95%
[2]; 31.3 ppm
  Postemergence herbicidal activity STEME: 98%
[3]; 31.3 ppm
  Postemergence herbicidal activity XANST: 100%
[4]; 31.3 ppm
  Postemergence herbicidal activity SETFA: 100%
[6]; 31.3 ppm
  Postemergence herbicidal activity POLCO: 98%
[7]; 31.3 ppm
  Postemergence herbicidal activity ABUTH: 100%
Viola (Viola tricolor); 31.3 ppm
  Postemergence herbicidal activity VIOTR: 85%
[8]; 31.3 ppm
  Postemergence herbicidal activity SORBI: 80%
Wild oats (Avena fatua) [9]; 31.3 ppm
  Postemergence herbicidal activity AVEFA: 60%
[10]; 31.3 ppm
  Postemergence herbicidal activity AMARE: 100%
[11]; 31.3 ppm
  Postemergence herbicidal activity ALOMY: 80%
[12]; 17.5 g/Ha
  Preemergence herbicidal activity IPOHE: 90%
[13]; 17.5 g/Ha
  Preemergence herbicidal activity DIGSA: 85%
[14]; 17.5 g/Ha
  Preemergence herbicidal activity XANST: 80%
[15]; 17.5 g/Ha
  Preemergence herbicidal activity SETFA: 100%
[23]; 17.5 g/Ha
  Preemergence herbicidal activity CHEAL: 100%
[16]; 17.5 g/Ha
  Preemergence herbicidal activity EPHHL: 90%
[17]; 17.5 g/Ha
  Preemergence herbicidal activity ABUTH: 85%
[18]; 17.5 g/Ha
  Preemergence herbicidal activity ECHCG: 100%
[19]; 17.5 g/Ha
  Preemergence herbicidal activity SORBI: 95%
Wild oats (Avena fatua) [20]; 17.5 g/Ha
  Preemergence herbicidal activity AVEFA: 30%
[21]; 17.5 g/Ha
  Preemergence herbicidal activity AMARE: 100%
[22]; 17.5 g/Ha
  Preemergence herbicidal activity ALOMY: 95%
